US9282743B2, “Chemical compounds” (Syngenta Participations AG, priority 2011, dated 2016)

Assays:
Type in all cases: in vivo
Lolium perenne (LOLPE) [1] = experiment: Example B6: post application on weeds, LOLPE; conditions: 312 h, after 13 days, 100 = total damage, 0 = no damage, read-out: LOLPE damage to plant
Protocol: (§1) Lolium perenne (LOLPE), Alopecurus myosuroides (ALOMY), Echinochloa crus-galli (ECHCG) and Avena fatua (AVEFA). Activity Against Weeds Seeds of a variety of test species were sown in standard soil in pots. After cultivation for 8 days under controlled conditions in a glasshouse (at 24/16° C., day/night; 14 hours light; 65% humidity), the plants were sprayed with an aqueous spray solution derived from the formulation of the technical active ingredient in acetone/water (50:50) solution containing 0.5% Tween 20 (polyoxyethelyene sorbitan monolaurate, CAS RN 9005-64-5). The test plants were then grown in a glasshouse under controlled conditions in a glasshouse (at 24/16° C., day/night; 14 hours light; 65% humidity) and watered twice daily. After 13 days, the test was evaluated (100=total damage to plant; 0=no damage to plant).

Avena fatua (AVEFA) [2] = experiment: Example B7: pre application on weeds, AVEFA; conditions: 312 h, pre-emergence spray one day after sowing, evaluated after 13 days, read-out: Pre application on weeds, AVEFA (100=total damage to plant; 0=no damage to plant)
Protocol: as §1, with “one day” for “8 days”

Avena fatua (AVEFA) [3] = experiment: Example B6: post application on weeds, AVEFA; conditions: 312 h, after 13 days, 100 = total damage, 0 = no damage, read-out: AVEFA damage to plant
Protocol: as §1

[4] = test system: Echinochloa crus-galli (ECHCG); experiment: Example B6: post application on weeds, ECHCG; conditions: 312 h, after 13 days, 100 = total damage, 0 = no damage, read-out: ECHCG damage to plant
Protocol: as §1

[5] = test system: Alopecurus myosuroides (ALOMY); experiment: Example B7: pre application on weeds, ALOMY; conditions: 312 h, pre-emergence spray one day after sowing, evaluated after 13 days, read-out: Pre application on weeds, ALOMY (100=total damage to plant; 0=no damage to plant)
Protocol: as §1, with “one day” for “8 days”

Winter wheat (TRZAW) = experiment: Example B8: post application on wheat, with and without safener cloquintocet-mexyl; conditions: after 13 days, 100 = total damage, 0 = no damage
Protocol: Application with Safener (Cloquintocet-Mexyl) Winter wheat seeds with a seed treatment of cloquintocet-mexyl applied at a rate of 0.5 g/kg seeds were sown in standard soil in pots. After cultivation for 8 days under controlled conditions in a glasshouse (at 24/16° C., day/night; 14 hours light; 65% humidity), the plants were sprayed with an aqueous spray solution derived from the formulation of the technical active ingredient in acetone/water (50:50) solution containing 0.5% Tween 20 (polyoxyethelyene sorbitan monolaurate, CAS RN 9005-64-5). The test plants were then grown in a glasshouse under controlled conditions in a glasshouse (at 24/16° C., day/night; 14 hours light; 65% humidity) and watered twice daily. After 13 days, the test was evaluated (100=total damage to plant; 0=no damage to plant).

Lolium perenne (LOLPE) [6] = experiment: Example B7: pre application on weeds, LOLPE; conditions: 312 h, pre-emergence spray one day after sowing, evaluated after 13 days, read-out: Pre application on weeds, LOLPE (100=total damage to plant; 0=no damage to plant)
Protocol: as §1, with “one day” for “8 days”

[7] = test system: Alopecurus myosuroides (ALOMY); experiment: Example B6: post application on weeds, ALOMY; conditions: 312 h, after 13 days, 100 = total damage, 0 = no damage, read-out: ALOMY damage to plant
Protocol: as §1

[8] = test system: Echinochloa crus-galli (ECHCG); experiment: Example B7: pre application on weeds, ECHCG; conditions: 312 h, pre-emergence spray one day after sowing, evaluated after 13 days, read-out: Pre application on weeds, ECHCG (100=total damage to plant; 0=no damage to plant)
Protocol: as §1, with “one day” for “8 days”

[9] = 250 g/ha + 0.5 g/kg seeds cloquintocet-mexyl
[10] = 62.5 g/ha + 0.5 g/kg seeds cloquintocet-mexyl

| SMILES | pest or weed control at 250 g/ha (Lolium perenne (LOLPE) [1]) | pest or weed control at 250 g/ha (Avena fatua (AVEFA) [2]) | pest or weed control at 250 g/ha (Avena fatua (AVEFA) [3]) | pest or weed control at 250 g/ha [4] | pest or weed control at 250 g/ha [5] | TRZAW damage to plant (Winter wheat (TRZAW); [9]) | TRZAW damage to plant (Winter wheat (TRZAW); 250 g/ha, without safener) | pest or weed control at 250 g/ha (Lolium perenne (LOLPE) [6]) | pest or weed control at 250 g/ha [7] | pest or weed control at 250 g/ha [8] | TRZAW damage to plant (Winter wheat (TRZAW); [10]) | TRZAW damage to plant (Winter wheat (TRZAW); 62.5 g/ha, without safener) |
| --- | --- | --- | --- | --- | --- | --- | --- | --- | --- | --- | --- | --- |
| CON1CCn2c(OC(=O)C(C)(C)C)c(-c3c(C)cc(C)cc3C)c(=O)n2CC1 [Compound P1.1, 2,2-Dimethyl-propionic acid 3-methoxy-9-oxo-8-(2,4,6-trimethyl-phenyl)-2,3,4,5-tetrahydro-1H,9H-pyrazolo[1,2-a][1,2,5]triazepin-7-yl ester] | 100% | 50% | 100% | 100% | 90% | 50 | 70 | 100% | 100% | 20% | – | – |
| CCOC(=O)Oc1c(-c2c(C)cc(C)cc2C)c(=O)n2n1CCN(OC)CC2 [Compound P1.2, Carbonic acid ethyl ester 3-methoxy-9-oxo-8-(2,4,6-trimethyl-phenyl)-2,3,4,5-tetrahydro-1H,9H-pyrazolo[1,2-a][1,2,5]triazepin-7-yl ester] | 100% | 80% | 100% | 100% | 80% | 30 | 80 | 90% | 50% | 40% | – | – |
| CCOC(=O)Oc1c(-c2c(C)cc(Cl)cc2C)c(=O)n2n1CCN(OC)CC2 [Compound P1.3] | 60% | 0% | 80% | 60% | 0% | 20 | 70 | 10% | 80% | 20% | – | – |
| C#Cc1cc(C)cc(C)c1-c1c(OC(=O)OCC)n2n(c1=O)CCN(OC)CC2 [Compound P1.5] | 90% | 90% | 100% | 100% | 40% | – | – | 30% | 100% | 20% | 20 | 80 |
| CCOC(=O)Oc1c(-c2cc(-c3ccc(Cl)cc3)ccc2C)c(=O)n2n1CCN(OC)CC2 [Compound P1.7] | 70% | 0% | 100% | 80% | 0% | – | – | 0% | 70% | 0% | 40 | 80 |
| C#Cc1cc(C)c(-c2c(OC(=O)OCC)n3n(c2=O)CCN(OC)CC3)c(C)c1 [Compound P1.8] | 40% | 20% | 80% | 70% | 0% | 20 | 60 | 0% | 80% | 20% | – | – |
| CCOC(=O)Oc1c(-c2c(C)cc(C)cc2OC)c(=O)n2n1CCN(OC)CC2 [Compound P1.9] | 90% | 80% | 90% | 100% | 70% | 60 | 80 | 80% | 90% | 70% | – | – |
| CCOC(=O)Oc1c(-c2c(C)cc(Br)cc2C)c(=O)n2n1CCN(OC)CC2 [Compound P1.10] | 70% | 40% | 70% | 60% | 70% | 30 | 60 | 70% | 80% | 60% | – | – |
| CCOC(=O)Oc1c(-c2c(Cl)cc(C)cc2Br)c(=O)n2n1CCN(OC)CC2 [Compound P1.11] | 80% | 70% | 70% | 60% | 100% | 10 | 60 | 90% | 80% | 80% | – | – |
| CCOC(=O)Oc1c(-c2c(C)cc(Cl)cc2Br)c(=O)n2n1CCN(OC)CC2 [Compound P1.12] | 70% | 10% | 70% | 50% | 90% | 30 | 60 | 100% | 80% | 0% | – | – |
| CON1CCN2C(=O)C(c3c(C)cc(C)cc3C)C(=O)N2CC1 [Compound P2.1, 3-Methoxy-8-(2,4,6-trimethyl-phenyl)-tetrahydro-pyrazolo[1,2-a][1,2,5]triazepine-7,9-dione] | 90% | 90% | 90% | 100% | 100% | 30 | 60 | 100% | 90% | 100% | – | – |
| CON1CCN2C(=O)C(c3c(C)cc(Cl)cc3C)C(=O)N2CC1 [Compound P2.2, 8-(4-Chloro-2,6-dimethyl-phenyl)-3-methoxy-tetrahydro-pyrazolo[1,2-a][1,2,5]triazepine-7,9-dione] | 70% | 50% | 50% | 60% | 80% | 20 | 30 | 80% | 70% | 70% | – | – |
| C#Cc1cc(C)cc(C)c1C1C(=O)N2CCN(OC)CCN2C1=O [Compound P2.5] | 100% | 100% | 100% | 100% | 100% | 10 | 80 | 100% | 90% | 90% | – | – |
